Reference: patent EP0319316A2, “Griseolic acid monoesters, their preparation and use” (SANKYO COMPANY LIMITED, priority 1987, dated 1989)

Assays:
[1] = tested on: Balb/3T3 cells; conditions: 10 min, 500 µM
Description: Balb/3T3 cells were incubated in Dulbecco's modified Eagle medium (glucose-rich) containing 100/o v/v bovine fetal serum. […] The sample was then dissolved in a buffer solution prepared by the further addition of 4 mM of calcium chloride to the buffer solution mentioned above. If the sample was difficult to dissolve in water, it was dissolved first in dimethyl sulphoxide (DMSO) and then the resulting solution was diluted with the buffer (the final concentration of DMSO was determined to be 0.1%). The cell suspension was preincubated at 30° C for 5 minutes, and 100 µℓ of this suspension were added to 100 µℓ of the sample solution to initiate enzymatic reaction. After incubation at 30° C for 10 minutes, 20 µℓ of 1 N aqueous hydrochloric acid was added to stop the reaction. The reaction mixture was then centrifuged at 3000 rpm for 3 minutes to obtain 100 µℓ of the supernatant. Cyclic 3',5'-adenosine monophosphate (cAMP) contained in the supernatant was quantitatively analyzed by radioimmunoassay using a Yamasa cAMP radioimmunoassay kit YSI-7701. The CAMP accumulating effect is reported as the ratio between the value measured using a test compound and that measured in the control.

[2] = tested on: Normal intraocular pressure; assay: Normal intraocular pressure lowering effect (Experiment 3); type: in vivo, male New Zealand white rabbits; conditions: 2.0% sample solution, p < 0.05
Description: In the following Experiments 1 to 6, the test animals used were male New Zealand white rabbits, each weighing about 2.5 kg, raised in a room where the room temperature, relative humidity and lighting time were controlled to be 23° C, 60% and from 07:00 to 19:00, respectively. The animals were chosen from those where no abnormalities could be detected in their eyes by observation with the naked eye. They were given water freely but feed was restricted. The compound under test was dissolved in 100 mM of a sodium phosphate buffer solution (pH 7.2) containing a small amount of a 0.1 N aqueous solution of sodium hydroxide. In the case of timolol maleate, a 0.5% w/v eye lotion (Timoptol 0.5%, Santen Pharm. Co.) was used as such. The corneal surface was anesthetized by the application of oxybuprocain hydrochloride (Benoxil 0.4% solution, Santen Pharm. Co.), and the IOP was measured by means of an Alcon Applanation Pneumatograph (Japan Alcon) in rabbits. The measurements were carried out 2 or 3 times for each eye, and the mean value was calculated and is regarded as the value of IOP. After determination of the IOP, 25 µℓ of a sample solution was applied to one eye (test eye) three times every two minutes, and the same volume of the vehicle alone was applied to the other eye (control eye). The values of IOP of both eyes were measured with the passage of time. In this Experiment, the test compound was the compound of Example 19(b).

[3] = tested on: Male F344 rats; assay: Acute toxicity in the rat (Experiment 7); type: in vivo; conditions: single, observation one week
Description: Animals: Male F344 rats were used, each group consisting of 3 animals.
Drug preparation and administration: the compound of Example 19(b) was dissolved in distilled water and administered subcutaneously to the rats in a volume of 0.5 ml per 100 g of body weight. Observation of the rats was carried out over a period of one week.

[4] = design: species or system Male albino rabbits; conditions: rabbit, in vivo

CC(=O)Oc1ccc(COC(=O)C23C=C(C(O)C(=O)O)OC2C(O)C(n2cnc4c(N)ncnc42)O3)cc1 (centres unmarked) [Example 19(b), 9'-(4-Acetoxybenzyl) griseolate]
cAMP accumulating effect [1]: 16 | IOP of test eye ([2]; 25 µℓ three times every two minutes, one hour after application, control eye 20.7 ± 1.4): 19.5 ± 1.4 mmHg | IOP of test eye ([2]; 2 hours after application, control eye 21.4): 19.3 ± 1.3 mmHg | IOP of test eye ([2]; 5 hours after application, control eye 22.8 ± 0.5): 20.6 ± 0.7 mmHg | death rate ([3]; dose 25 mg/kg subcutaneously): 0/3 | death rate ([3]; dose 50 mg/kg subcutaneously): 0/3 | death rate ([3]; dose 100 mg/kg subcutaneously): 3/3 | IP [4]: 5.1 ± 0.5 mg/dL
